The values that follow come from publication PMC9864536, “Inter-Species Redox Coupling by Flavin Reductases and FMN-Dependent Two-Component Monooxygenases Undertaking Nucleophilic Baeyer–Villiger Biooxygenations” (Microorganisms, 2022).

For data set [1], the system named is Frp2. Briefly: initial rate of FMN reduction by NADH at […] nm, single-enzyme, Michaelis-Menten. In kind it is biochemical, Pseudomonas putida. To be noted: co-substrate NADH, anaerobic; single-enzyme assay (S); read-out: Apparent KmFMN.
In data set [2] the test system is Frp1. The data set is described as above. The data set is classed as biochemical, Pseudomonas putida. To be noted: co-substrate NADH, anaerobic; single-enzyme assay (S); read-out: Apparent KmFMN.
Data set [3] concerns the target T1, 3,6-DKCMO (Pseudomonas putida, UniProt D7UER1).
T1 construct: gene camE36; natively purified biooxygenating subunit, untagged
T1 sequence (D7UER1 1-378): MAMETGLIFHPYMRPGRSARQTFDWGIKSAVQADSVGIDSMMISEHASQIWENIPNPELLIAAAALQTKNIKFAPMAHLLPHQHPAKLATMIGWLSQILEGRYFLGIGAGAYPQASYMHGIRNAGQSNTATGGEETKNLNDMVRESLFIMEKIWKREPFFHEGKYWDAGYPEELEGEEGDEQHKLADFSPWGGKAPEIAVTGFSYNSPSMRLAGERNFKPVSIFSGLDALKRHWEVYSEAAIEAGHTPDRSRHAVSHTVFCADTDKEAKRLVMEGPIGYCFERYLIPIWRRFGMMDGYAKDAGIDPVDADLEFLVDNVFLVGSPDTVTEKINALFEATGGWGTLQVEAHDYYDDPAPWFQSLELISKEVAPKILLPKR
Briefly: […] min biotransformation with FMNH2 supplied by purified flavin reductases, GC. The data set is classed as biochemical. To be noted: FMNH2 cosubstrate generated in situ from FMN and NADH, 1 mM ketone, pH 7.6, 25 °C.

In data set [4] the target is T2, LuxAB luciferase (Aliivibrio fischeri, UniProt P19907).
T2 construct: gene luxA; natively purified LuxAB luciferase, untagged; with Alkanal monooxygenase beta chain
T2 sequence (P19907 1-354): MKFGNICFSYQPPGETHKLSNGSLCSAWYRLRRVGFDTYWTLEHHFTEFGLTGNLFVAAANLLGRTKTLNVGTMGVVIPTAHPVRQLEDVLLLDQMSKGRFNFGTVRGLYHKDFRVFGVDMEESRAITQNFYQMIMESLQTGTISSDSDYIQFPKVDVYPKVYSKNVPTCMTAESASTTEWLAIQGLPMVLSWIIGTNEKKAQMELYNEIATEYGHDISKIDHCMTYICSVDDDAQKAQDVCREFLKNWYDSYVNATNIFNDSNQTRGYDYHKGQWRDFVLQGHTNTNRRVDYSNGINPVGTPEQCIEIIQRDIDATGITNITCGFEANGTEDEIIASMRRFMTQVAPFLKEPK
T2 sequence (P19908 1-326 partner): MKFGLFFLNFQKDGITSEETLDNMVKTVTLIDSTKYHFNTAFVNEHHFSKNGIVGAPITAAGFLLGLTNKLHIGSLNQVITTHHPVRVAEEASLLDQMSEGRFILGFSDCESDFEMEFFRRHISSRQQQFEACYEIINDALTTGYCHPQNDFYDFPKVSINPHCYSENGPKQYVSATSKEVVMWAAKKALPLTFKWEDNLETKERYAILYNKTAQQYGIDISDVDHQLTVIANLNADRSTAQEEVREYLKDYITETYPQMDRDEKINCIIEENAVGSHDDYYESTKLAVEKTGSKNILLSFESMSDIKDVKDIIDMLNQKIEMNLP
The data set is described as above. To be noted: FMNH2 cosubstrate generated in situ from FMN and NADH, 1 mM ketone, pH 7.6, 25 °C. In kind it is biochemical.

Substrate in data set [5]: Cc1cc2nc3c(=O)[nH]c(=O)nc-3n(C[C@H](O)[C@H](O)[C@H](O)COP(=O)(O)O)c2cc1C
Briefly: purified protein. In kind it is biochemical, Aliivibrio fischeri. To be noted: co-substrate NADH, anaerobic; single-enzyme assay (S).

For `Cc1cc2nc3c(=O)[nH]c(=O)nc-3n(C[C@H](O)[C@H](O)[C@H](O)COP(=O)(O)O)c2cc1C` [FMN], the figures for the Km in data set [1] and in data set [2] were 4.2 µM and 2.5 µM, respectively.

`Cc1cc2c(cc1C)N(C[C@H](O)[C@H](O)[C@H](O)COP(=O)(O)O)c1[nH]c(=O)[nH]c(=O)c1N2` [FMNH2]: the “120 min biotransformation with FMNH2 supplied by purified flavin reductases, GC” value in data set [3] and in data set [4] was “can biooxygenate the bicyclic ketone by sourcing the requisite FMNH2 cosubstrate” each time.

B1: FreVf (Aliivibrio fischeri) (protein)
chain: MPINCKVKSIEPLACNTFRILLHPEQPVAFKAGQYLTVVMGEKDKRPFSIASSPCRHEGEIELHIGAAEHNAYAGEVVESMKSALETGGDILIDAPHGEAWIREDSDRSMLLIAGGTGFSYVRSILDHCISQQIQKPIYLYWGGRDECQLYAKAELESIAQAHSHITFVPVVEKSEGWTGKTGNVLEAVKADFNSLADMDIYIAGRFEMAGAAREQFTTEKQAKKEQLFGDAFAFI
B1: in data set [5], the Km is 2.5 µM.

B2: FRGVf (Aliivibrio fischeri) (protein)
chain: THPIIHDLENRYTSKKYDPSKKVSQEDLAVLLEALRLSASSINSQPWKFIVIESDAAKQRMHDSFANMHQFNQPHIKACSHVILFANKLSYTRDDYDVVLSKAVADKRITEEQKEAAFASFKFVELNCDENGEHKAWTKPQAYLALGNALHTLARLNIDSTTMEGIDPELLSEIFADELKGYECHVALAIGYHHPSEDYNASLPKSRKAFEDVITIL
Consider B2, for which, in data set [5], the Km is 4.3 µM.
